Laboratory results reported in the supplement of paper PMC10307832.

Tests used:
Assay in all cases: relative viability (nuclei count vs DMSO), 5 days (fraction); higher = more cells survive
LK-2 = test system: LK-2
In short: (§1)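 Lung cancer cell lines in 1536-well plates got either a single drug or a fixed anchor-drug dose together with five library-drug doses (not always all listed) in √10 steps, by pin tool, on the day after seeding. Nuclei were counted after 5 days, and relative viability is the treated-to-vehicle ratio of nuclei counts. Values are medians of duplicate plates.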

NCI-H2009 = test system: NCI-H2009
In short: as §1

LC-2-ad = test system: LC-2-ad
In short: as §1

EMC-BAC-2 = test system: EMC-BAC-2
In short: as §1

NCI-H2347 = test system: NCI-H2347
In short: as §1

SW 1573 = test system: SW 1573
In short: as §1

NCI-H838 = test system: NCI-H838
In short: as §1

HCC-366 = test system: HCC-366
In short: as §1

PC-14 = test system: PC-14
In short: as §1

NCI-H2085 = test system: NCI-H2085
In short: as §1

NCI-H1734 = test system: NCI-H1734
In short: as §1

HOP-62 = test system: HOP-62
In short: as §1

NCI-H1993 = test system: NCI-H1993
In short: as §1

NCI-H2405 = test system: NCI-H2405
In short: as §1

RERF-LC-KJ = test system: RERF-LC-KJ
In short: as §1

CAL-12T = test system: CAL-12T
In short: as §1

NCI-H2228 = test system: NCI-H2228
In short: as §1

ChaGo-K-1 = test system: ChaGo-K-1
In short: as §1

NCI-H3122 = test system: NCI-H3122
In short: as §1

SK-MES-1 = test system: SK-MES-1
In short: as §1

NCI-H1355 = test system: NCI-H1355
In short: as §1

HCC-78 = test system: HCC-78
In short: as §1

O=c1[nH]c2ccccc2n1C1CCN(CCCC(c2ccc(F)cc2)c2ccc(F)cc2)CC1 [Pimozide] + CC(=O)c1c(C)c2cnc(Nc3ccc(N4CCNCC4)cn3)nc2n(C2CCCC2)c1=O [Palbociclib] (partner 0.5 µM)
relative viability (LK-2; first compound 0.08 µM): 0.646 | relative viability (LK-2; first compound 0.253 µM): 0.599 | relative viability (LK-2; first compound 0.8 µM): 0.698 | relative viability (LK-2; first compound 8 µM): 0.562 | relative viability (NCI-H2009; first compound 0.08 µM): 0.202 | relative viability (NCI-H2009; first compound 0.253 µM): 0.307 | relative viability (NCI-H2009; first compound 0.8 µM): 0.178 | relative viability (NCI-H2009; first compound 2.53 µM): 0.226 | relative viability (NCI-H2009; first compound 8 µM): 0.188 | relative viability (LC-2-ad; first compound 0.08 µM): 0.517 | relative viability (LC-2-ad; first compound 0.253 µM): 0.474 | relative viability (LC-2-ad; first compound 0.8 µM): 0.475 | relative viability (LC-2-ad; first compound 2.53 µM): 0.472 | relative viability (LC-2-ad; first compound 8 µM): 0.482 | relative viability (EMC-BAC-2; first compound 0.08 µM): 0.517 | relative viability (EMC-BAC-2; first compound 0.253 µM): 0.505 | relative viability (EMC-BAC-2; first compound 0.8 µM): 0.511 | relative viability (EMC-BAC-2; first compound 2.53 µM): 0.506 | relative viability (EMC-BAC-2; first compound 8 µM): 0.495 | relative viability (NCI-H2347; first compound 0.08 µM): 0.432 | relative viability (NCI-H2347; first compound 0.253 µM): 0.418 | relative viability (NCI-H2347; first compound 0.8 µM): 0.463 | relative viability (NCI-H2347; first compound 2.53 µM): 0.455 | relative viability (NCI-H2347; first compound 8 µM): 0.407 | relative viability (SW 1573; first compound 0.08 µM): 0.422 | relative viability (SW 1573; first compound 0.253 µM): 0.318 | relative viability (SW 1573; first compound 0.8 µM): 0.249 | relative viability (SW 1573; first compound 2.53 µM): 0.214 | relative viability (SW 1573; first compound 8 µM): 0.146 | relative viability (NCI-H838; first compound 0.08 µM): 0.252 | relative viability (NCI-H838; first compound 0.253 µM): 0.251 | relative viability (NCI-H838; first compound 0.8 µM): 0.203 | relative viability (NCI-H838; first compound 2.53 µM): 0.244 | relative viability (NCI-H838; first compound 8 µM): 0.215 | relative viability (HCC-366; first compound 0.08 µM): 0.38 | relative viability (HCC-366; first compound 0.253 µM): 0.404 | relative viability (HCC-366; first compound 0.8 µM): 0.345 | relative viability (HCC-366; first compound 2.53 µM): 0.379 | relative viability (HCC-366; first compound 8 µM): 0.357 | relative viability (PC-14; first compound 0.253 µM): 0.579 | relative viability (PC-14; first compound 0.8 µM): 0.368 | relative viability (PC-14; first compound 2.53 µM): 0.219 | relative viability (PC-14; first compound 8 µM): 0.178 | relative viability (NCI-H2085; first compound 0.08 µM): 0.452 | relative viability (NCI-H2085; first compound 0.253 µM): 0.483 | relative viability (NCI-H2085; first compound 0.8 µM): 0.438 | relative viability (NCI-H2085; first compound 2.53 µM): 0.479 | relative viability (NCI-H2085; first compound 8 µM): 0.422 | relative viability (NCI-H1734; first compound 0.08 µM): 0.316 | relative viability (NCI-H1734; first compound 0.253 µM): 0.262 | relative viability (NCI-H1734; first compound 0.8 µM): 0.372 | relative viability (NCI-H1734; first compound 2.53 µM): 0.347 | relative viability (NCI-H1734; first compound 8 µM): 0.328 | relative viability (HOP-62; first compound 0.08 µM): 0.412 | relative viability (HOP-62; first compound 0.253 µM): 0.391 | relative viability (HOP-62; first compound 2.53 µM): 0.361 | relative viability (HOP-62; first compound 8 µM): 0.442 | relative viability (NCI-H1993; first compound 0.08 µM): 0.616 | relative viability (NCI-H1993; first compound 0.253 µM): 0.58 | relative viability (NCI-H1993; first compound 0.8 µM): 0.653 | relative viability (NCI-H1993; first compound 2.53 µM): 0.556 | relative viability (NCI-H1993; first compound 8 µM): 0.558 | relative viability (NCI-H2405; first compound 0.08 µM): 0.522 | relative viability (NCI-H2405; first compound 0.253 µM): 0.516 | relative viability (NCI-H2405; first compound 0.8 µM): 0.478 | relative viability (NCI-H2405; first compound 2.53 µM): 0.456 | relative viability (NCI-H2405; first compound 8 µM): 0.33 | relative viability (RERF-LC-KJ; first compound 0.08 µM): 1 | relative viability (RERF-LC-KJ; first compound 0.253 µM): 0.972 | relative viability (RERF-LC-KJ; first compound 0.8 µM): 0.987 | relative viability (RERF-LC-KJ; first compound 2.53 µM): 0.778 | relative viability (RERF-LC-KJ; first compound 8 µM): 0.851 | relative viability (CAL-12T; first compound 0.08 µM): 0.473 | relative viability (CAL-12T; first compound 0.253 µM): 0.416 | relative viability (CAL-12T; first compound 0.8 µM): 0.442 | relative viability (CAL-12T; first compound 2.53 µM): 0.295 | relative viability (CAL-12T; first compound 8 µM): 0.269 | relative viability (NCI-H2228; first compound 0.08 µM): 0.517 | relative viability (NCI-H2228; first compound 0.253 µM): 0.58 | relative viability (NCI-H2228; first compound 0.8 µM): 0.606 | relative viability (NCI-H2228; first compound 2.53 µM): 0.587 | relative viability (NCI-H2228; first compound 8 µM): 0.417 | relative viability (ChaGo-K-1; first compound 0.08 µM): 0.918 | relative viability (ChaGo-K-1; first compound 0.253 µM): 0.955 | relative viability (ChaGo-K-1; first compound 0.8 µM): 0.9 | relative viability (ChaGo-K-1; first compound 2.53 µM): 0.903 | relative viability (ChaGo-K-1; first compound 8 µM): 0.9 | relative viability (NCI-H3122; first compound 0.08 µM): 0.175 | relative viability (NCI-H3122; first compound 0.253 µM): 0.176 | relative viability (NCI-H3122; first compound 0.8 µM): 0.174 | relative viability (NCI-H3122; first compound 2.53 µM): 0.163 | relative viability (NCI-H3122; first compound 8 µM): 0.185 | relative viability (SK-MES-1; first compound 0.08 µM): 0.307 | relative viability (SK-MES-1; first compound 0.253 µM): 0.298 | relative viability (SK-MES-1; first compound 0.8 µM): 0.303 | relative viability (SK-MES-1; first compound 2.53 µM): 0.316 | relative viability (SK-MES-1; first compound 8 µM): 0.314 | relative viability (NCI-H1355; first compound 0.08 µM): 0.338 | relative viability (NCI-H1355; first compound 0.253 µM): 0.387 | relative viability (NCI-H1355; first compound 0.8 µM): 0.329 | relative viability (NCI-H1355; first compound 2.53 µM): 0.388 | relative viability (NCI-H1355; first compound 8 µM): 0.407 | relative viability (HCC-78; first compound 0.08 µM): 0.514 | relative viability (HCC-78; first compound 0.8 µM): 0.431 | relative viability (HCC-78; first compound 2.53 µM): 0.421 | relative viability (HCC-78; first compound 8 µM): 0.524
